Patent publication US12054498B2, “Heteroaromatic macrocyclic ether chemotherapeutic agents” (Nuvalent, Inc., priority 2020, dated 2024)
pIC50: −log10 of the molar value.

Tests used:
Assay type in all cases: cell-based
Ba/F3 cells TPM3-TRKA = target: T1, Ba/F3 cells TPM3-TRKA (Homo sapiens, UniProt P04629); assay: Ba/F3 cell proliferation assay, TPM3-TRKA; conditions: 72 hours, CellTiter-Glo, read-out: TPM3-NTRK1-wt IC50
T1 construct: host or cells: Ba/F3 (RIKEN), retroviral pMSCV-puro; the other entry of the earlier key: TPM3 (P06753, Tropomyosin alpha-3 chain)
Text: (§1) Genes encoding CD74-ROS1 wild-type (wt), CD74-ROS1 G2032R, CD74-ROS1 S1986F, CD74-ROS1 L2026M, CD74-ROS1 D2033N, EML4-ALK wt (variant 1), EML4-ALK G1202R (variant 1), EML4-ALK L1196M/G1202R (variant 1), EML4-ALK G1202R/G1269A (variant 1), EML4-ALK G1202R/L1198F (variant 1), and TPM3-TRKA were synthesized at GeneRay, cloned into the retroviral construct pMSCV-puro (Biovector), and packaged into retroviral particles. The virus was used to infect Ba/F3 cells (RIKEN) at multiplicity of infection=1 for 1 day. Infected cells were rescued in media (RPMI-1640 with 10% fetal bovine serum and 1% streptomycin and penicillin) supplemented with mouse IL-3 (10 ng/mL) for 2 days, and stable cell lines were selected by IL-3 withdrawal and puromycin (0.8 μg/mL) for 7 days. Monoclones were selected by single-cell dilution in IL-3-free medium containing puromycin (0.8 μg/mL). Transformation of desired genes was confirmed by Sanger sequencing and western blot using the following antibodies: ROS1 (CST #3287), ALK (CST #3633), and pan-TRK (Abcam #76291).
(§2) Cell Proliferation Assay Stable cells were plated at 1,000 cells/well (40 μL) in a 384-well plate for 1 day.
(§3) Test compounds (40 nL) were then added in a 3-fold dilution series using the TECAN EVO200 liquid handler and incubated for 72 hours. Plates were equilibrated at room temperature for 15 minutes followed by addition of 40 μL CellTiter-Glo reagent (Promega).
(§4) Luminescence was measured on a plate reader. Half-maximal inhibitory concentration (IC50) was calculated from percent inhibition and inhibitor concentration using four-parameter logistic regression. […] (nd=not determined).

[1] = target: T2, Ba/F3 cells EML4-ALK L1196M/G1202R (variant 1) (Homo sapiens, UniProt Q9UM73, G1202R/L1196M); assay: Ba/F3 cell proliferation assay, EML4-ALK L1196M/G1202R (variant 1); conditions: 72 hours, CellTiter-Glo
T2 construct: echinoderm microtubule-associated protein-like 4 (EML4) gene and the ALK tyrosine kinase domain; host or cells: Ba/F3 (RIKEN), retroviral pMSCV-puro; the other entry of the earlier key: EML4 (Q9HC35, Echinoderm microtubule-associated protein-like 4)
Text: as §1, §2, §3, §4

[2] = target: T3, Ba/F3 cells EML4-ALK wt (variant 1) (Homo sapiens, UniProt Q9UM73); assay: Ba/F3 cell proliferation assay, EML4-ALK wt (variant 1); conditions: 72 hours, CellTiter-Glo
T3 construct: echinoderm microtubule-associated protein-like 4 (EML4) gene and the ALK tyrosine kinase domain; host or cells: Ba/F3 (RIKEN), retroviral pMSCV-puro; the other entry of the earlier key: EML4 (Q9HC35, Echinoderm microtubule-associated protein-like 4)
Text: as §1, §2, §3, §4

[3] = tested on: TPM3-NTRK1-wt IC50 / primary target IC50 (e.g. CD74-ROS1-wt); assay: TRKA selectivity in Ba/F3 cells (TRKA potency divided by primary target potency); conditions: for TPM3-NTRK1-wt/CD74-ROS1-G2032R selectivity ratio: TRKA potency / CD74-ROS1-G2032R potency; for TPM3-NTRK1-wt/CD74-ROS1-wt selectivity ratio: TRKA potency / CD74-ROS1-wt potency; for TPM3-NTRK1-wt/EML4-ALK-L1196M-G1202R selectivity ratio: TRKA potency / EML4-ALK-L1196M-G1202R potency; for TPM3-NTRK1-wt/EML4-ALK-wt selectivity ratio: TRKA potency / EML4-ALK-wt potency
Method: TRKA selectivity was calculated by dividing a compound's TRKA potency by its primary target potency (e.g. TPM3-NTRK1-wt IC50/CD74-ROS1-wt IC50). Compound selectivity can be interpreted by binning ratio values: bin A for very high selectivity, ratio >30-fold; bin B for high selectivity, ratio >10-fold; bin C for moderate selectivity, ratio ≥1; and bin D for low selectivity, ratio <1. […] (nd=not determined).

[4] = target: T4, Ba/F3 cells CD74-ROS1 wild-type (wt) (Homo sapiens, UniProt P08922); assay: Ba/F3 cell proliferation assay, CD74-ROS1 wild-type; conditions: 72 hours, CellTiter-Glo
T4 construct: fusion of the C-terminus of ROS1 with the N-terminus of various partner proteins; host or cells: Ba/F3 (RIKEN), retroviral pMSCV-puro; the other entry of the earlier key: CD74 (P04233, HLA class II histocompatibility antigen gamma chain)
Method: (§5) The virus was used to infect Ba/F3 cells (RIKEN) at multiplicity of infection=1 for 1 day. Infected cells were rescued in media (RPMI-1640 with 10% fetal bovine serum and 1% streptomycin and penicillin) supplemented with mouse IL-3 (10 ng/mL) for 2 days, and stable cell lines were selected by IL-3 withdrawal and puromycin (0.8 μg/mL) for 7 days. Monoclones were selected by single-cell dilution in IL-3-free medium containing puromycin (0.8 μg/mL).
as §2, §3, §4

[5] = target: T5, Ba/F3 cells CD74-ROS1 G2032R (Homo sapiens, UniProt P08922, G2032R); assay: Ba/F3 cell proliferation assay, CD74-ROS1 G2032R; conditions: 72 hours, CellTiter-Glo
T5 construct: fusion of the C-terminus of ROS1 with the N-terminus of various partner proteins; host or cells: Ba/F3 (RIKEN), retroviral pMSCV-puro; the other entry of the earlier key: CD74 (P04233, HLA class II histocompatibility antigen gamma chain)
Method: as §5, §2, §3, §4

T1 sequence (P04629 510-796 limits assumed): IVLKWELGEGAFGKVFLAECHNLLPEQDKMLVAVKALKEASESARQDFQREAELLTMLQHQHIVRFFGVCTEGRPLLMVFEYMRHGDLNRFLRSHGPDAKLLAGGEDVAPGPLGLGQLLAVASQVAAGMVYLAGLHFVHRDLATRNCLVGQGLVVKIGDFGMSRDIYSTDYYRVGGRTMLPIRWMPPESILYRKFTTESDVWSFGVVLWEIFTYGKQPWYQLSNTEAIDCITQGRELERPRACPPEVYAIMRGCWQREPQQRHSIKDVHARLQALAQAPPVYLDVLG
T2 sequence (Q9UM73 with tags, fused parts or gaps L1196M/G1202R): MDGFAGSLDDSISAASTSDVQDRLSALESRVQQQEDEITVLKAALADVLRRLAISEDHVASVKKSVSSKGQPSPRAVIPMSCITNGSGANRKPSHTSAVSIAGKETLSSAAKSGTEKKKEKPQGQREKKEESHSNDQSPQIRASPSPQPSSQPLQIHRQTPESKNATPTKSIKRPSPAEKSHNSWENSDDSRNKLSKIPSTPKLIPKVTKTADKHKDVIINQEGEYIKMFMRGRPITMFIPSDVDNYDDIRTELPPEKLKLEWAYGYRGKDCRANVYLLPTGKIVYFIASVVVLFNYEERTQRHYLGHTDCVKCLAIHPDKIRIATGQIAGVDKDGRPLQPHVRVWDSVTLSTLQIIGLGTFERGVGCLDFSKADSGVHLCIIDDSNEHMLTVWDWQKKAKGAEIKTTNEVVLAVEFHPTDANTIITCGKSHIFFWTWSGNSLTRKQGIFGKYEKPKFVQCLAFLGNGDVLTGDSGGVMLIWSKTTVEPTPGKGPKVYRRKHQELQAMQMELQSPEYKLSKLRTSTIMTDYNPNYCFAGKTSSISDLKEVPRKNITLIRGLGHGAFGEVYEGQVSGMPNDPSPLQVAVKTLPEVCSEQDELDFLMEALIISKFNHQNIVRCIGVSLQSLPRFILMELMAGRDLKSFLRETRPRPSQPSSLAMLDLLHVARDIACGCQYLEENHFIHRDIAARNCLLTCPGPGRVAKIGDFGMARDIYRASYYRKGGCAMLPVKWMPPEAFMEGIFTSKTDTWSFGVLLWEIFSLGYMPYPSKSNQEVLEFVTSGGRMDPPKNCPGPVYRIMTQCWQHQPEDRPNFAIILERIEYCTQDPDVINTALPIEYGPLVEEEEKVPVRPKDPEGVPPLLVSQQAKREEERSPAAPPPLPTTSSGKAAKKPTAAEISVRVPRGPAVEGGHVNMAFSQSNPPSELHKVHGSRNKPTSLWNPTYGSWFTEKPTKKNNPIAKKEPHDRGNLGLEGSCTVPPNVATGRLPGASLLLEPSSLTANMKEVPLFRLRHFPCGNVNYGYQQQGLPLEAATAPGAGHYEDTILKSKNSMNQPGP
T5 sequence (P08922 1883-2347 G2032R limits assumed): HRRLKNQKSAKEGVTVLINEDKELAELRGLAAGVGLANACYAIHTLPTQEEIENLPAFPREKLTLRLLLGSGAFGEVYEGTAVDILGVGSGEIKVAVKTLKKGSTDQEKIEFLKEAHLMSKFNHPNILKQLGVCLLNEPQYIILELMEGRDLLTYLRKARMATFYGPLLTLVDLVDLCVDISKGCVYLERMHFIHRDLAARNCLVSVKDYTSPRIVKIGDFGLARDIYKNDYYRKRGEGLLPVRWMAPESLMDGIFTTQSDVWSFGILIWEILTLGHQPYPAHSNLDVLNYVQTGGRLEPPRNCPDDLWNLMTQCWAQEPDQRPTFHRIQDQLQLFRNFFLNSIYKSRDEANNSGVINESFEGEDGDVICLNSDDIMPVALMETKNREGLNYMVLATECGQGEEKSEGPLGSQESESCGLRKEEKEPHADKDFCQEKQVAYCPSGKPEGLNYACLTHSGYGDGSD
T3 sequence (Q9UM73 with tags, fused parts or gaps): as the sequence (Q9UM73 with tags, fused parts or gaps L1196M/G1202R) above, with M635L, R641G counted along it
T4 sequence (P08922 1883-2347 limits assumed): as the sequence (P08922 1883-2347 G2032R limits assumed) above, with R150G counted along it

| pIC50 (Ba/F3 cells TPM3-TRKA) | pIC50 [1] | pIC50 [2] | pIC50 [4] | pIC50 [5] | SMILES | TPM3-NTRK1-wt/CD74-ROS1-G2032R selectivity ratio [3] | TPM3-NTRK1-wt/CD74-ROS1-wt selectivity ratio [3] | TPM3-NTRK1-wt/EML4-ALK-L1196M-G1202R selectivity ratio [3] | TPM3-NTRK1-wt/EML4-ALK-wt selectivity ratio [3] |
| --- | --- | --- | --- | --- | --- | --- | --- | --- | --- |
| < 6.30 | < 6.30 | 6.30 to 7.30 | 7.30 to 10.00 | 6.30 to 7.30 | CCn1ncc2c1-c1cnc(N)c(c1)OCc1cc(F)ccc1-c1ccnn1C2 [Example 17, 3-ethyl-16-fluoro-20-oxa-3,4,8,9,23-pentaazapentacyclo[19.3.1.0^2,^6.0^8,^12.0^13,^18]pentacosa-1(24),2(6),4,9,11,13,15,17,21(25),22-decaen-22-amine] | A (bin A for very high selectivity, ratio >30-fold) | A (bin A for very high selectivity, ratio >30-fold) | C (bin C for moderate selectivity, ratio ≥1) | B (bin B for high selectivity, ratio >10-fold) |
| 6.30 to 7.30 | 6.30 to 7.30 | 7.30 to 10.00 | 7.30 to 10.00 | 7.30 to 10.00 | CCn1nc(OC)c2c1-c1cnc(N)c(c1)O[C@H](C)c1cc(F)ccc1-c1cc(C)nn1C2 [Example 32, (19R)-3-ethyl-16-fluoro-5-methoxy-10,19-dimethyl-20-oxa-3,4,8,9,23-pentaazapentacyclo[19.3.1.0^2,^6.0^8,^12.0^13,^18]pentacosa-1(24),2(6),4,9,11,13,15,1 7,21(25),22-decaen-22-amine] | A (bin A for very high selectivity, ratio >30-fold) | A (bin A for very high selectivity, ratio >30-fold) | C (bin C for moderate selectivity, ratio ≥1) | B (bin B for high selectivity, ratio >10-fold) |
| < 6.30 | 6.30 to 7.30 | 6.30 to 7.30 | 7.30 to 10.00 | 7.30 to 10.00 | CCn1nc(Cl)c2c1-c1cnc(N)c(c1)O[C@H](C)c1cc(F)ccc1-c1ncnn1C2 [Example 43, (19R)-5-chloro-3-ethyl-16-fluoro-19-methyl-20-oxa-3,4,8,9,11,23-hexaazapentacyclo[19.3.1.0^2,^6.0^8,^12.0^13,^18]pentacosa-1(24),2,(6),4,9,11,13,15,17,21(25),22-decaen-22-amine] | A (bin A for very high selectivity, ratio >30-fold) | A (bin A for very high selectivity, ratio >30-fold) | C (bin C for moderate selectivity, ratio ≥1) | B (bin B for high selectivity, ratio >10-fold) |
| < 6.30 | 6.30 to 7.30 | 7.30 to 10.00 | 7.30 to 10.00 | 7.30 to 10.00 | C[C@H]1Oc2cc(cnc2N)-c2c(CC3CC3)noc2Cn2ncnc2-c2ccc(F)cc21 [Example 67, (19R)-3-(cyclopropylmethyl)-16-fluoro-19-methyl-5,20-dioxa-4,8,9,11,23-pentaazapentacyclo[19.3.1.0^2,^6.0^8,^12.0^13,^18]pentacosa-1(24),2(6),3,9,11,13,15,17,21(25),22-decaen-22-amine] | A (bin A for very high selectivity, ratio >30-fold) | A (bin A for very high selectivity, ratio >30-fold) | C (bin C for moderate selectivity, ratio ≥1) | A (bin A for very high selectivity, ratio >30-fold) |
| < 6.30 | 7.30 to 10.00 | 7.30 to 10.00 |  | 7.30 to 10.00 | Cc1nn(CC2CC2)c2c1Cc1nccnc1-c1ccc(F)cc1[C@@H](C)Oc1cc-2cnc1N [Example 77, (20R)-3-(cyclopropylmethyl)-17-fluoro-5,20-dimethyl-21-oxa-3,4,9,12,24-pentaazapentacyclo[20.3.1.0^2,^6.0^8,^13.0^14,^19]hexacosa-1(25),2(6),4,8(13),9,11,14,16,18,22(26),23-undecaen-23-amine] | A (bin A for very high selectivity, ratio >30-fold) |  | A (bin A for very high selectivity, ratio >30-fold) | A (bin A for very high selectivity, ratio >30-fold) |
| < 6.30 | 6.30 to 7.30 | 7.30 to 10.00 | 7.30 to 10.00 | 7.30 to 10.00 | Cc1nc2c(o1)-c1ccc(F)cc1[C@@H](C)Oc1cc(cnc1N)-c1c(c(C)nn1CC1CC1)C2 [Example 78, (19R)-3-(cyclopropylmethyl)-16-fluoro-5,10,19-trimethyl-11,20-dioxa-3 ,4,9,23-tetraazapentacyclo[19.3.1.0^2,^6.0^8,^12.0^13,^18]pentacosa-1(24),2(6),4,8(12),9,13,15,17,21(25),22-decaen-22-amine] | A (bin A for very high selectivity, ratio >30-fold) | A (bin A for very high selectivity, ratio >30-fold) | A (bin A for very high selectivity, ratio >30-fold) | A (bin A for very high selectivity, ratio >30-fold) |
| < 6.30 | < 6.30 | 6.30 to 7.30 | 7.30 to 10.00 | 7.30 to 10.00 | Cc1nn(CC2CC2)c2c1Cn1nc(Cl)cc1-c1ccc(F)cc1[C@@H](C)Oc1cc-2cnc1N [Example 81, (19R)-10-chloro-3-(cyclopropylmethyl)-16-fluoro-5,19-dimethyl-20-oxa-3,4,8,9,23-pentaazapentacyclo[19.3.1.0^2,^6.0^8,^12.0^13,^18]pentacosa-1(24),2(6),4,9,ll,13,15,17,21(25),22-decaen-22-amine] | A (bin A for very high selectivity, ratio >30-fold) | A (bin A for very high selectivity, ratio >30-fold) | C (bin C for moderate selectivity, ratio ≥1) | A (bin A for very high selectivity, ratio >30-fold) |
| 6.30 to 7.30 | 7.30 to 10.00 | 7.30 to 10.00 | 7.30 to 10.00 | 7.30 to 10.00 | C[C@H]1Oc2cc(cnc2N)-c2c(cnn2CC2CC2)Cc2nn(C(F)F)nc2-c2ccc(F)cc21 [Example 91, (19R)-3-(cyclopropylmethyl)-10-(difluoromethyl)-16-fluoro-19-methyl-20-oxa-3,4,9,10,11,23-hexaazapentacyclo[19,3.1.0^2,^6.0^8,^12.0^13,^18]pentacosa-1(24),2(6),4,8,11,13,15,17,21(25),22-decaen-22-amine] | A (bin A for very high selectivity, ratio >30-fold) | A (bin A for very high selectivity, ratio >30-fold) | B (bin B for high selectivity, ratio >10-fold) | A (bin A for very high selectivity, ratio >30-fold) |
